From publication PMC9607104, “Switching the N-Capping Region from all-L to all-D Amino Acids in a VEGF Mimetic Helical Peptide” (Molecules, 2022) come the findings set out here.

Molecules are shown by their SMILES. Square brackets hold non-standard residues; d marks the D form. Peptide text beside a SMILES is read from it.

A short description of this data set: Peptide stability in 50% human serum (RP-HPLC time course). In kind it is in vitro ADME. Particulars: 50% aqueous human serum, 37 °C, time points 0, 30 (35), 120 min, RP-HPLC peak area at 220 nm, triplicate. The procedure: D-amino acids are more resistant to protease degradation. In order to verify the effect of D-amino acid replacement on QK stability in serum, we performed a time-course analysis. Peptides were incubated with 50% diluted human serum and analyzed by RP-HPLC at three different times (0′, 35′ and 120′). The area of the chromatographic peak corresponding to the entire peptide was determined (Figure 6). Overall, peptide QK presents fairly good stability in 50% serum, as almost the 50% is still present after […] of incubation.
Figure 6 Analysis of peptide stability in 50% human serum. […] Data are reported as means of a triplicate experiment.
Briefly, 20 µL of peptide (10 mg/mL stock solution in H2O) were added to 200 µL of 50% aqueous solution of human serum (Sigma-Aldrich) (previously centrifuged at 10,000 rpm for 10 min at 4 °C) and the mixture was incubated at 37 °C. At each time point (0, 30, 120 min), an aliquot of 6 µL was diluted in a ten times volume of H2O and analyzed by RP-HPLC on an Atlantis C18-column (Waters, 5 µm, 4.6 mm × 150 mm) using a linear aqueous acetonitrile gradient containing TFA (0.1%, v/v). Initial condition 5% B, 5−5% B in 5 min, 5−40% B in 27 min, 40−100% B in 5 min, and flow rate 1 mL/min (B = acetonitrile 0.1% TFA). Peptides were detected by recording the absorbance at 220 nm and quantified by their peak areas relative to the initial peak areas (0 min). […]

In the case of `CC[C@H](C)[C@H](NC(=O)CNC(=O)[C@H](CCCCN)NC(=O)[C@H](Cc1ccc(O)cc1)NC(=O)[C@H](CCCCN)NC(=O)[C@H](CC(C)C)NC(=O)[C@H](CCC(N)=O)NC(=O)[C@H](Cc1ccc(O)cc1)NC(=O)[C@H](CC(C)C)NC(=O)[C@H](CCC(=O)O)NC(=O)[C@H](CCC(N)=O)NC(=O)[C@H](Cc1c[nH]c2ccccc12)NC(=O)[C@H](NC(=O)[C@@H](CC(C)C)NC(=O)[C@@H](CCCCN)NC(C)=O)[C@H](C)O)C(N)=O` [D-QK, Ac-^DLys-^DLeu-^DThr-Trp-Gln-Glu-Leu-Tyr-Gln-Leu-Lys-Tyr-Lys-Gly-Ile-NH2] (Ac-[dK][dL][dT]WQELYQLKYKGI-NH2), the “effect of the N-terminal D-amino acids on stability in human serum (versus QK)” value is reported as “unaffected”.
